Laboratory results from PubChem BioAssay AID330 (DTP/NCI, 2004).
Several values for one entry are separate records, joined by “and”; a condition that tells them apart may be missing. Equal entries are not always repeated. Inconclusive results and toxic doses are left out. Peptide text beside a SMILES is read from it.

Test system: P388 leukemia ip, CD2F1 mice, survival T/C
Experiment: NCI In Vivo Anticancer Drug Screen. Data for tumor model P388 Leukemia (intraperitoneal) in CD2F1 (CDF1) mice
Settings: endpoint: median survival time, higher = longer survival
How it was run: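 Mice carrying the transplanted tumor received test compound or vehicle. Survival was recorded in each group, and the value is the treated-group measurement divided by that of the vehicle-treated control group.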

[1] = dose: 25.0 mg/kg/injection, schedule: Q01DX005 (ip), vehicle: Klucel (hydroxypropylcellulose) (HPC)
[2] = dose: 50.0 mg/kg/injection, schedule: Q01DX005 (ip), vehicle: Klucel (hydroxypropylcellulose) (HPC)
[3] = dose: 100.0 mg/kg/injection, schedule: Q01DX005 (ip), vehicle: Klucel (hydroxypropylcellulose) (HPC)
[4] = dose: 60.0 mg/kg/injection, schedule: Q01DX005 (ip), vehicle: Klucel (hydroxypropylcellulose) (HPC)
[5] = dose: 100.0 mg/kg/injection, schedule: Q04DX002 (ip), vehicle: saline with Tween-80
[6] = dose: 200.0 mg/kg/injection, schedule: Q04DX002 (ip), vehicle: saline with Tween-80
[7] = dose: 50.0 mg/kg/injection, schedule: Q01DX005 (ip), vehicle: saline with Tween-80
[8] = dose: 100.0 mg/kg/injection, schedule: Q01DX005 (ip), vehicle: saline with Tween-80
[9] = dose: 200.0 mg/kg/injection, schedule: Q01DX005 (ip), vehicle: saline with Tween-80
[10] = dose: 60.0 mg/kg/injection, schedule: Q01DX005 (ip), vehicle: saline with Tween-80
[11] = dose: 120.0 mg/kg/injection, schedule: Q01DX005 (ip), vehicle: saline with Tween-80
[12] = dose: 240.0 mg/kg/injection, schedule: Q01DX005 (ip), vehicle: saline with Tween-80
[13] = dose: 50.0 mg/kg/injection, schedule: Q01DX005 (ip), vehicle: saline
[14] = dose: 100.0 mg/kg/injection, schedule: Q01DX005 (ip), vehicle: saline
[15] = dose: 200.0 mg/kg/injection, schedule: Q01DX005 (ip), vehicle: saline
[16] = dose: 60.0 mg/kg/injection, schedule: Q01DX005 (ip), vehicle: saline
[17] = dose: 120.0 mg/kg/injection, schedule: Q01DX005 (ip), vehicle: saline
[18] = dose: 25.0 mg/kg/injection, schedule: Q01DX005 (ip), vehicle: saline with Tween-80
[19] = dose: 200.0 mg/kg/injection, schedule: Q01DX009 (ip), vehicle: saline
[20] = dose: 12.5 mg/kg/injection, schedule: Q01DX009 (ip), vehicle: saline
[21] = dose: 100.0 mg/kg/injection, schedule: Q01DX009 (ip), vehicle: Klucel (hydroxypropylcellulose) (HPC)
[22] = dose: 50.0 mg/kg/injection, schedule: Q01DX009 (ip), vehicle: saline with Tween-80
[23] = dose: 100.0 mg/kg/injection, schedule: Q01DX009 (ip), vehicle: saline with Tween-80
[24] = dose: 200.0 mg/kg/injection, schedule: Q01DX009 (ip), vehicle: saline with Tween-80
[25] = dose: 400.0 mg/kg/injection, schedule: Q01DX009 (ip), vehicle: saline with Tween-80
[26] = dose: 6.25 mg/kg/injection, schedule: Q01DX005 (ip), vehicle: saline with Tween-80

## CN=C(NC#N)NCCSCc1nc[nH]c1C
[1]
  T/C: 102 % of control
[2]
  T/C: 93 % of control
[3]
  T/C: 93 % of control
dose: 200.0 mg/kg/injection, schedule: Q01DX005 (ip), vehicle: Klucel (hydroxypropylcellulose) (HPC)
  T/C: 102 % of control
dose: 400.0 mg/kg/injection, schedule: Q01DX005 (ip), vehicle: Klucel (hydroxypropylcellulose) (HPC)
  T/C: 93 % of control

## Cc1cc(O)cc(=O)n1CCc1ccccc1
[4]
  T/C: 88 % of control
dose: 120.0 mg/kg/injection, schedule: Q01DX005 (ip), vehicle: Klucel (hydroxypropylcellulose) (HPC)
  T/C: 94 % of control
dose: 240.0 mg/kg/injection, schedule: Q01DX005 (ip), vehicle: Klucel (hydroxypropylcellulose) (HPC)
  T/C: 96 % of control

## COc1cccc(-c2nnc(-c3nc[nH]c3C)[nH]c2=O)c1
[5]
  T/C: 93 % of control
[6]
  T/C: 91 % of control
dose: 400.0 mg/kg/injection, schedule: Q04DX002 (ip), vehicle: saline with Tween-80
  T/C: 91 % of control

## O=C(O)C1CCCN1C(=O)c1cccc(Cl)c1 (stereo not drawn)
[7]
  T/C: 94 % of control
[8]
  T/C: 96 % of control
[9]
  T/C: 87 % of control

## Nc1nc(-c2cc(Cl)cc(Cl)c2)cc(-c2cc(-c3cc(Cl)cc(Cl)c3)nc(N)n2)n1
[10]
  T/C: 100 % of control
[11]
  T/C: 106 % of control
[12]
  T/C: 96 % of control

## NC(CCC(=O)O)C(=O)NC(Cc1c[nH]c2ccccc12)C(=O)NC(CCC(=O)O)C(=O)O (stereo not drawn) (H-Glu-Trp-Glu-OH; configuration not given here)
[13]
  T/C: 93 % of control
[14]
  T/C: 104 % of control
[15]
  T/C: 105 % of control

## CCOc1ccc(/C=N/NC(=O)CC2CCCCC2)cc1OC
[10]
  T/C: 90 % of control
[11]
  T/C: 87 % of control
[12]
  T/C: 95 % of control

## Cc1ccc(SCC#CC#CCS(=O)c2ccc(C)cc2)cc1 (stereo not drawn)
[7]
  T/C: 110 % of control
[8]
  T/C: 107 % of control

## CCN(CCO)CC1CCCC2CCCCC21 (stereo not drawn)
[16]
  T/C: 92 % of control
[17]
  T/C: 98 % of control

## Cc1ccc(C2(C(=O)C=[N+]=[N-])OC2(C)C)cc1 (stereo not drawn)
[18]
  T/C: 99 % of control
[7]
  T/C: 99 % of control
[8]
  T/C: 115 % of control
[9]
  T/C: 108 % of control

## CC(C)C1OCN2C(C)CCCC12 (stereo not drawn)
[13]
  T/C: 105 % of control
[14]
  T/C: 111 % of control
[15]
  T/C: 111 % of control

## CCOC(=O)C12OC(=O)CC(NC1C(=O)OC(C)(C)C)C2O (stereo not drawn)
[16]
  T/C: 98 % of control
[17]
  T/C: 91 % of control
dose: 240.0 mg/kg/injection, schedule: Q01DX005 (ip), vehicle: saline
  T/C: 104 % of control

## COC(=O)OC(C#N)c1ccccc1[N+](=O)[O-] (stereo not drawn)
dose: 1.56 mg/kg/injection, schedule: Q01DX009 (ip), vehicle: saline
  T/C: 88 % of control
dose: 3.12 mg/kg/injection, schedule: Q01DX009 (ip), vehicle: saline
  T/C: 98 % of control
dose: 6.25 mg/kg/injection, schedule: Q01DX009 (ip), vehicle: saline
  T/C: 105 % of control
dose: 6.25 mg/kg/injection, schedule: Q01DX009 (ip), vehicle: suspension in saline
  T/C: 88 % of control
[19]
  T/C: 94 % of control

## c1cc[c]([Sn]([NH]c2ncnc3[nH]cnc23)([NH]c2ncnc3[nH]cnc23)[c]2ccccc2)cc1
[20]
  T/C: 123 % of control
[21]
  T/C: 196 % of control

## O=C1CCSC(=S)N1c1ccc(C(F)(F)F)cc1
dose: 50.0 mg/kg/injection, schedule: Q01DX009 (ip), vehicle: suspension in saline
  T/C: 90 % of control
dose: 100.0 mg/kg/injection, schedule: Q01DX009 (ip), vehicle: suspension in saline
  T/C: 97 % of control
dose: 200.0 mg/kg/injection, schedule: Q01DX009 (ip), vehicle: suspension in saline
  T/C: 94 % of control

## Cc1cc(C)nc(NS(=O)(=O)c2ccc(NC(=O)Nc3ccc([N+](=O)[O-])cc3Cl)cc2)n1
dose: 50.0 mg/kg/injection, schedule: Q01DX009 (ip), vehicle: Klucel (hydroxypropylcellulose) (HPC)
  T/C: 94 % of control
[21]
  T/C: 86 % of control

## FC(F)(F)C1=C(C(F)(F)F)SP(Cl)(c2ccccc2)(c2ccccc2)S1
dose: 50.0 mg/kg/injection, schedule: Q04DX003 (ip), vehicle: other
  T/C: 107 % of control
dose: 100.0 mg/kg/injection, schedule: Q04DX003 (ip), vehicle: other
  T/C: 100 % of control
dose: 200.0 mg/kg/injection, schedule: Q04DX003 (ip), vehicle: other
  T/C: 93 % of control

## O=C(Nc1ncc([N+](=O)[O-])s1)c1cc(Cl)cc(Cl)c1
dose: 12.5 mg/kg/injection, schedule: Q01DX005 (ip), vehicle: Klucel (hydroxypropylcellulose) (HPC)
  T/C: 104 % of control
[1]
  T/C: 100 % of control
[2]
  T/C: 100 % of control and 101 % of control

## O=C(Oc1c(F)c(F)c(F)c(F)c1F)N(CCCl)CCCl
dose: 100.0 mg/kg/injection, schedule: Q01DX001 (ip), vehicle: Klucel (hydroxypropylcellulose) (HPC)
  T/C: 101 % of control
dose: 200.0 mg/kg/injection, schedule: Q01DX001 (ip), vehicle: Klucel (hydroxypropylcellulose) (HPC)
  T/C: 104 % of control
dose: 400.0 mg/kg/injection, schedule: Q01DX001 (ip), vehicle: Klucel (hydroxypropylcellulose) (HPC)
  T/C: 94 % of control

## CC(=O)Oc1ccc(=O)[nH]c1
[20]
  T/C: 100 % of control and 105 % of control

## O=c1cc(NC2OC(CO)C(O)C(O)C2O)[nH]c(=O)[nH]1 (stereo not drawn)
[10]
  T/C: 96 % of control
[11]
  T/C: 102 % of control
[12]
  T/C: 104 % of control

## COc1ccc(-c2oc3cc(OC)c(OC)c(O)c3c(=O)c2O)cc1O
dose: 25.0 mg/kg/injection, schedule: Q04DX002 (ip), vehicle: saline with Tween-80
  T/C: 105 % of control
dose: 50.0 mg/kg/injection, schedule: Q04DX002 (ip), vehicle: saline with Tween-80
  T/C: 110 % of control
[5]
  T/C: 103 % of control
[6]
  T/C: 102 % of control

## COC(=O)c1cc(C)cc(O)c1C
[22]
  T/C: 102 % of control
[23]
  T/C: 101 % of control
[24]
  T/C: 99 % of control
[25]
  T/C: 101 % of control

## CCSc1ccc(N2C(N)=NC(N)=NC2(C)C)cc1
[26]
  T/C: 103 % of control
dose: 12.5 mg/kg/injection, schedule: Q01DX005 (ip), vehicle: saline with Tween-80
  T/C: 103 % of control
[18]
  T/C: 118 % of control

## O=C(O)Cn1cc(I)c(=O)c(I)c1
[22]
  T/C: 102 % of control
[23]
  T/C: 112 % of control
dose: 100.0 mg/kg/injection, schedule: Q01DX009 (ip), vehicle: saline
  T/C: 101 % of control
[24]
  T/C: 110 % of control
[19]
  T/C: 105 % of control
[25]
  T/C: 112 % of control
dose: 400.0 mg/kg/injection, schedule: Q01DX009 (ip), vehicle: saline
  T/C: 102 % of control
dose: 600.0 mg/kg/injection, schedule: Q01DX009 (ip), vehicle: saline
  T/C: 101 % of control

## N#CC1CCN(Cc2ccccc2)C(C#N)C1 (stereo not drawn)
dose: 15.0 mg/kg/injection, schedule: Q01DX005 (ip), vehicle: Klucel (hydroxypropylcellulose) (HPC)
  T/C: 105 % of control
dose: 30.0 mg/kg/injection, schedule: Q01DX005 (ip), vehicle: Klucel (hydroxypropylcellulose) (HPC)
  T/C: 106 % of control
[4]
  T/C: 102 % of control and 106 % of control

## C=C(Cl)C(=NC(C)(C)C)Nc1ccccc1
[2]
  T/C: 102 % of control
[3]
  T/C: 92 % of control

## Cc1ccc2no[n+]([O-])c2c1[N+](=O)[O-]
[7]
  T/C: 118 % of control and 119 % of control
[8]
  T/C: 121 % of control
[9]
  T/C: 150 % of control

## CC(=O)C(C(C)=O)C(C(C)=O)C(C)=O.[Cu]
dose: 1.5 mg/kg/injection, schedule: Q01DX005 (ip), vehicle: saline with Tween-80
  T/C: 110 % of control
dose: 3.0 mg/kg/injection, schedule: Q01DX005 (ip), vehicle: saline with Tween-80
  T/C: 107 % of control
dose: 6.0 mg/kg/injection, schedule: Q01DX005 (ip), vehicle: saline with Tween-80
  T/C: 99 % of control
[26]
  T/C: 104 % of control
